Measurements: patent US4315027A, “Pesticidal symmetrical and asymmetrical sulfinyldicarbamates containing a heterocyclic group” (priority 1980, dated 1982)

Tested on: mosquito larvae, Culex pipiens
Assay: Larvicidal activity against mosquito larvae in water
Format: in vivo
Conditions: 1 ml acetone solution in 100 ml water, 3rd instar larvae
Procedure: Representative compounds of the N,N'-sulfinyldicarbamate esters of the invention were tested for insecticidal activity against two insect species, house flies, Musca domestica, and mosquito larvae, Culex pipiens. Stock 1% concentrated solutions of each of the test compounds were made in acetone, and such solutions diluted with acetone to a concentration of 0.001-0.1%. House flies were treated topically on the notum by 1 μl of each of the diluted acetone solutions and percent mortality was counted 24 hours after application. Insects were held at a constant temperature of 60° F. Larvicidal activity was determined by applying 1 ml of the acetone solution in 100 ml of water containing 20 3rd instar mosquito larvae. Results are presented as LD50 in μg/g for house flies and LC50 in ppm for mosquito larvae.

Compound | Culex LC50 [ppm]
CCCOC(=O)N(C)[S+]([O-])N(C)C(=O)Oc1ccccc1OC(C)C (stereo not drawn) [XI, 2-isopropoxyphenyl N-[N'-(n-propoxycarbonyl)-N'-(methylaminosulfinyl)]-N-methylcarbamate] | 0.18
CCOC(=O)N(C)[S+]([O-])N(C)C(=O)Oc1cccc2c1OC(C)(C)C2 (stereo not drawn) [VIII, 2,3-dihydro-2,2-dimethylbenzofuranyl-7 N-[N'-(ethoxycarbonyl)-N'-(methylaminosulfinyl)]-N-methylcarbamate] | 0.04
CCCCCCCOC(=O)N(C)[S+]([O-])N(C)C(=O)Oc1cccc2c1OC(C)(C)C2 (stereo not drawn) [X, 2,3-dihydro-2,2-dimethylbenzofuranyl-7 N-[N'-(n-heptoxycarbonyl)-N'-(methylaminosulfinyl)]-N-methylcarbamate] | 0.015
